Here are results for four compounds from patent US20110055943A1, “NOVEL THERAPEUTIC TARGETS IN INFLAMMATORY BOWEL DISEASE” (SALIX PHARMACEUTICALS, LTD., priority 2007, published 2011).

The subject of one data set is CYP3A. Kind of data set: Pharmacokinetics of MDZ in hPXR mice pretreated with RIFax. As to conditions: MDZ 2.5 mg/kg oral; for AUC0-90 min / Cmax / Tmax: serum; for AUC0-90 min ratio RIFax/Cont / Cmax ratio RIFax/Cont / Tmax ratio RIFax/Cont: hPXR mice, RIFax pretreated vs control. As to the method: Blood samples were collected from suborbital veins using heparinized tubes at pre-dose, 5, 10, 20, 30, 60, and 90 min after administration of MDZ. Serum was separated by centrifugation at 8,000 g for 10 min. For MDZ and 1′-OH-MDZ extraction, 50 μl of serum was mixed with 150 μl of phosphate-buffered saline, 200 μl of ethyl acetate, and 200 μl of methyl t-butyl ether. The mixture was centrifuged at 3,000 rpm for 5 min at 4° C. The organic layer was then transferred to a new tube, dried with N2, and reconstituted in 100 μl of 70% aqueous methanol and 30% H2O containing 0.1% formic acid. […] Pharmacokinetic parameters for MDZ and 1′-OH-MDZ were estimated from the plasma concentration-time data by a non-compartmental approach using WinNonlin (Pharsight, Mountain View, Calif.). The area under the serum concentration-time curve (AUC0-90 min) was calculated by the trapezoidal rule. The maximum concentration in serum (Cmax) and its corresponding time (Tmax) were obtained from the original data.

The next data set concerns the target T1, PXR (Mus musculus, UniProt O54915).
T1 construct: host or cells: mice (DSS colitis model)
T1 sequence (O54915 1-431): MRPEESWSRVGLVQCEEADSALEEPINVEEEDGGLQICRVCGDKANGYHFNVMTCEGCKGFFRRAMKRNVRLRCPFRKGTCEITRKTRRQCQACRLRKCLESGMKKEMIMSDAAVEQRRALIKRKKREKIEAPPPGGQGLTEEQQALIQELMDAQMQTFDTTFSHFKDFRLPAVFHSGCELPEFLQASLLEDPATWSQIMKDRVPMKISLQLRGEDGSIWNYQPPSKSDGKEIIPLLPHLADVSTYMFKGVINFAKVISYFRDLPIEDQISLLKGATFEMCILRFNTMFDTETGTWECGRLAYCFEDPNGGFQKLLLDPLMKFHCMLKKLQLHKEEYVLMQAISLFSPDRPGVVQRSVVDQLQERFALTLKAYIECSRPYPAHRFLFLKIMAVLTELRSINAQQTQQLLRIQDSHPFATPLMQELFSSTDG
As to conditions: dextran sulfate sodium (DSS)-induced BD mouse model; cited from earlier work.

The subject of data set [1] is MRP2. The following applies: mouse PXR ligand; cited from earlier work.
Data set [2] concerns MRP2. As to conditions: rat hepatocytes; cited from earlier work.
A further data set can be described thus: in vivo. It counts as in vivo. The following applies: mouse, in vivo, po, 10 mg/kg. As to the method: (§1) The maximum concentration in serum (Cmax) was obtained from the original data. […] Intestinal contents were weighted, and homogenized in methanol (100 mg/ml). The homogenate was centrifuged at 14,000 rpm for 10 min at 4° C.
(§2) The mass spectrometer was operated in the turbo ion spray mode with positive ion detection. The turbo ion spray temperature was maintained at 300° C., and a voltage of 4.8 kV was applied to the sprayer needle. N2 was used as the turbo ion spray and nebulizing gas.

Data set [3] can be described thus: Intestinal tract distribution of RIF and RIFax in mice (intestinal contents, LC-MS/MS). It counts as in vivo. As to conditions: mouse, in vivo, po, 10 mg/kg. The method, then: as §1, §2
Where [4] appears, read: Cont: hPXR mice without RIFax pretreatment.
[5] abbreviates: hPXR mice pretreated with RIFax 10 mg/kg/day for 3 days.

For orientation: Cmax means the peak of the concentration-time curve. A word on the Tmax: it is the time from dosing to the highest level. Regarding `OCc1ncc2n1-c1ccc(Cl)cc1C(c1ccccc1F)=NC2` [1′-OH-MDZ, 1′-Hydroxymidazolam], in the data set with CYP3A (setting [4]), the AUC0-90 min amounted to 32.4 ± 3.0 µmol·min/L, the Cmax worked out at 562 ± 4.9 nM and the time to peak (Tmax) is recorded as 25.0 ± 7.1 min. Moreover, in the data set on CYP3A (setting [5]), the AUC0-90 min is 36.5 ± 4.2 µmol·min/L, the Cmax came to 823 ± 55.2 nM and the Tmax worked out at 7.5 ± 3.5 min. For the same compound, in the data set on CYP3A, the “AUC0-90 min ratio RIFax/Cont” value was found to be 1.1, the “Cmax ratio RIFax/Cont” value was found to be 1.5 and the “Tmax ratio RIFax/Cont” value was 0.3.
For the compound `Cc1ncc2n1-c1ccc(Cl)cc1C(c1ccccc1F)=NC2` [MDZ, midazolam], in the data set with CYP3A (setting [4]), the AUC0-90 min is 8.0 ± 0.4 µmol·min/L, the Cmax turned out to be 477 ± 40.3 nM and the Tmax is recorded as 10.0 ± 0.0 min. Besides, in the data set with CYP3A (setting [5]), the AUC0-90 min is 8.9 ± 0.7 µmol·min/L, the Cmax is 383 ± 19.1 nM and the Tmax is 12.5 ± 10.6 min. In the data set with CYP3A, the “AUC0-90 min ratio RIFax/Cont” value came to 1.1, the “Cmax ratio RIFax/Cont” value worked out at 0.8 and the “Tmax ratio RIFax/Cont” value came out at 1.3.
Consider `CC(=O)[C@H]1[C@H](C#N)C[C@H]2[C@@H]3CC=C4C[C@@H](O)CC[C@]4(C)[C@H]3CC[C@@]21C` [PCN], for which, at PXR, the DSS-induced colitis entry is listed as “significantly prevented”. Besides, the MRP2 induction result in the data set on MRP2 [1] is “not significantly induced”. Further, the MRP2 activation result in the data set on MRP2 [2] is reported as “activated”.
Consider `CO[C@H]1/C=C/O[C@@]2(C)Oc3c(C)c(O)c4c(O)c(c(/C=N/N5CCN(C)CC5)c(O)c4c3C2=O)NC(=O)/C(C)=C\C=C\[C@H](C)[C@H](O)[C@@H](C)[C@@H](O)[C@@H](C)[C@H](OC(C)=O)[C@@H]1C` [RIF, 3-(4-Methylpiperazinyliminomethyl)rifamycin SV], for which, in “in vivo”, the Cmax stood at 2750 nM. For the same compound, the “concentration in the small intestine (content)” value in data set [3] was “below 20 μg/g”.
